From PMC6009894, “Molecular modelling insights into a physiologically favourable approach to eicosanoid biosynthesis inhibition through novel thieno[2,3-b]pyridine derivatives” (Journal of Enzyme Inhibition and Medicinal Chemistry, 2018)
Several values for one entry are separate records, joined by “and”; a condition that tells them apart may be missing. Equal entries are not always repeated.

Experiments:
[1] = test system: carrageenan-induced rat paw oedema; test: carrageenan-induced rat paw oedema assay; type: in vivo, Sprague–Dawley rats; settings: for Inhibition of acute inflammation % inh / Swel (mean difference in rat paw volume between right and left paw): dose equivalent to 70 mg kg-1 ibuprofen; for Swel (mean difference in rat paw volume between right and left paw): DMSO
Method: According to a priori test results, experiments were conducted on young adult male Sprague–Dawley rats (5 rats per group), weighing 140–170 g. The animals were housed at cages in a temperature controlled (25 ± 1 °C) environment and were fed ad libitum with standard laboratory chow and allowed free access to water. […] The animal protocol is in accordance with the Animal Ethical Care regulations in the Faculty of Pharmacy, Helwan University.
Compounds (equimolar to the reference drug) were dissolved in DMSO and administrated subcutaneously. One hour later, paw oedema was induced by subplantar injection of 0.1 ml of 1% carrageenan (Sigma-Aldrich, St. Louis, MO) into the right hind paw. Paw volume was measured using a water plethysmometer (Basile, Comerio, Italy). The difference between the right and left paw volume was measured at 1, 2, 3, and 4 h after induction of inflammation.
The control group (five rats per group) received DMSO subcutaneously and carrageenan in the subplantar region. Results were expressed as percentage inhibition of inflammation.

SMILES	melting point [°C]	Inhibition of acute inflammation % inh ([1]; 1 h) [%]	Swel (mean difference in rat paw volume between right and left paw) ([1]; 1 h after carrageenan)	Inhibition of acute inflammation % inh ([1]; 2 h) [%]	Swel (mean difference in rat paw volume between right and left paw) ([1]; 2 h after carrageenan)	Inhibition of acute inflammation % inh ([1]; 3 h) [%]	Swel (mean difference in rat paw volume between right and left paw) ([1]; 3 h after carrageenan)	Inhibition of acute inflammation % inh ([1]; 4 h) [%]	Swel (mean difference in rat paw volume between right and left paw) ([1]; 4 h after carrageenan)	inflammation reduction % (4h) ([1]; rat paw oedema, 4 h time interval, subcutaneous, equimolar to ibuprofen 70 mg kg-1)
CC1=CC(C)=C(C#N)C2SC(=Cc3ccccc3)C(=O)N12 (racemic) [Compound 2a]	105 to 107	0	0.457	0	0.595	16.605	0.453	21.95	0.491	
CC1=CC(C)=C(C#N)C2SCN(c3ccccc3)CN12 (racemic) [Compound 4a, (±)3-Aryl-2,3,4,9a-tetrahydro-6,8-dimethylpyrido[2,1-b][1,3,5]thiadiazine-9-carbonitrile]	180 to 182	0	0.394	0	0.407	38.174	0.336	43.38	0.356	
CC1=CC(C)=C(C#N)C2SCN(Cc3ccccc3)CN12 (racemic) [Compound 4c]	125 to 127	0	0.45	4.78	0.22	7.39	0.213	35.08	0.409	
Cc1cc(C)c(C#N)c(=S)[nH]1 [Compound 1, 1,2-Dihydro-4,6-dimethyl-2-thioxopyridine-3-carbonitrile]		0	0.503	0	0.353	38.725	0.33	43.91	0.353	
CSc1nc(C)cc(C)c1C#N [Compound 3a, S-Methyl-4,6-dimethyl-2-thiopyridine-3-carbonitrile]		0	0.382	0	0.363	12.438	0.476	43.7	0.354	
CCOC(=O)CSc1nc(C)cc(C)c1C#N [Compound 3b, ethyl 2-(3-cyano-4,6-dimethylpyridin-2-ylthio)acetate]	93									
CCOC(=O)c1sc2nc(C)cc(C)c2c1N [Compound 5, Ethyl-3-amino-4,6-dimethylthieno[2,3-b]pyridine-2-carboxylate]		0	0.393	0	0.46	28.921	0.386	46.03	0.34	
Cc1cc(C)c2c(N)c(C(=O)NN)sc2n1 [Compound 6, 3-Amino-4,6-dimethylthieno[2,3-b]pyridine-2-carbazide]		0	0.410	0	0.486	38.84	0.332	58.67	0.26	
COc1ccc(C=NNC(=O)c2sc3nc(C)cc(C)c3c2N)cc1 [Compound 7c, 3-Amino-4,6-dimethyl-thieno [2,3-b] pyridine-2-carboxylic acid (4-methoxy-benzylidene)-hyrazide]		11.59	0.203	25.64	0.193	58.3	0.226	63.49	0.23	
Cc1cc(C)c2c(n1)sc1c(=O)n(N=Cc3ccccc3)nnc12 [Compound 8a, 7,9-Dimethyl-3-[(phenylmethylene)amino]pyrido[3′,2′:4,5]thieno[3,2-d][1,2,3]triazin-4(3H)-one]	300 to 302	0	0.256	14.1	0.223	30.75	0.376	53.96	0.29	
Cc1cc(C)c2c(N)c(-n3nc(C)cc3C=C=O)sc2n1 [Compound 9b, 3-Amino-2-[carbonyl (3,5-dimethyl-pyrazol-1-yl)]-4,6-dimethylthieno[2,3-b] pyridine]	150 to 152									
CC(=O)N(C(C)=O)n1c(C)nc2c(sc3nc(C)cc(C)c32)c1=O [Compound 10b, 3-Diacetylamino-2,7,9-trimethylpyrido [3',2':4,5]thieno[3,2-d]pyrimidin-4(3H)-one]	133 to 135									
CC(C)Cc1ccc(C(C)C(=O)O)cc1 (stereo not drawn) [Ibuprofen, reference compound]		6.08		45		60.66		69.52		69.5% and 69.52%
